Results from PubChem BioAssay (NCI).
Several values for one entry are separate records, joined by “and”; a condition that tells them apart may be missing. Equal entries are not always repeated.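 Where inhibition never reached the appropriate level, the endpoint shown equals the highest concentration tested. Otherwise, values were interpolated linearly from a five-concentration, 48-hour dose response in 96-well plates. GI50 = concentration required for 50% inhibition of growth. TGI: total growth inhibition.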

What was measured:
Experiment in all cases: inhibition of tumour cell growth, NCI panel, 48 h
HCT-116 colon = system: HCT-116 colon
NCI-H23 lung = system: NCI-H23 lung
786-0 renal = system: 786-0 renal
OVCAR-4 ovarian = system: OVCAR-4 ovarian
MDA-MB-231 breast = system: MDA-MB-231 breast
OVCAR-8 ovarian = system: OVCAR-8 ovarian
CCRF-CEM leukemia = system: CCRF-CEM leukemia
RPMI-8226 leukemia = system: RPMI-8226 leukemia
NCI/ADR-RES ovarian = system: NCI/ADR-RES ovarian
SNB-19 CNS = system: SNB-19 CNS

| SMILES | GI50 (HCT-116 colon) | TGI (HCT-116 colon) | GI50 (NCI-H23 lung) | TGI (NCI-H23 lung) | GI50 (786-0 renal) | TGI (786-0 renal) | GI50 (OVCAR-4 ovarian) | TGI (OVCAR-4 ovarian) | GI50 (MDA-MB-231 breast) | TGI (MDA-MB-231 breast) | GI50 (OVCAR-8 ovarian) | TGI (OVCAR-8 ovarian) | GI50 (CCRF-CEM leukemia) | TGI (CCRF-CEM leukemia) | GI50 (RPMI-8226 leukemia) | TGI (RPMI-8226 leukemia) | GI50 (NCI/ADR-RES ovarian) | TGI (NCI/ADR-RES ovarian) | GI50 (SNB-19 CNS) | TGI (SNB-19 CNS) |
| --- | --- | --- | --- | --- | --- | --- | --- | --- | --- | --- | --- | --- | --- | --- | --- | --- | --- | --- | --- | --- |
| CC[C@]12C=CCN3CC[C@@]4(c5ccc(OC)cc5N(C)[C@H]4[C@@](O)(C(=O)OC)[C@@H]1OC(=O)CCC(=O)O[C@H]1CC[C@H]4[C@@H]5CCC6=CC(=O)CC[C@@H]6[C@H]5CC[C@]14C)[C@@H]32 | 1.55 µM | > 50 µM | 1.98 µM | > 50 µM | 1.99 µM | > 50 µM | 1.79 µM | > 50 µM | 2.21 µM | > 50 µM | 2.24 µM | > 50 µM | 1.66 µM | > 50 µM | 1.07 µM | 3.11 µM | 1.69 µM | > 50 µM | 2.31 µM | > 50 µM |
| CC(=O)OC(COc1ccc2c(c1)[n+]([O-])nc(N)[n+]2[O-])CN1CCCCC1 (stereo not given) | – | 59.2 µM | – | 47.9 µM | – | 36.6 µM | – | > 100 µM | – | 28 µM | – | 41 µM | – | 79.3 µM | – | 25.8 µM | – | > 100 µM | – | > 100 µM |
| CNC(=O)/C=C/C1=CN2C(=O)c3ccc(C)c(O)c3NC(OC)C2C1 (stereo not given) | – | > 4.64 µM | – | < 0.0177 µM | – | 9.15 µM | – | 0.0244 µM | – | < 0.0397 µM | – | 0.192 µM | – | > 4.64 µM | – | 16.2 µM | – | < 0.0323 µM | – | 27.6 µM |
| Cn1cc(-c2csc(-c3ccccc3)n2)c2cccnc21 | 13.8 µM | 26.7 µM | 16.2 µM | 38 µM | 14.4 µM | 28.2 µM | 23.3 µM | 71.4 µM | 13.5 µM | 30.8 µM | 20.3 µM | 52.4 µM | 22.8 µM | > 100 µM | 14.3 µM | 98 µM | 19.3 µM | 49.6 µM | 15.9 µM | 47.8 µM |
| CCOC(=O)c1c(-c2ccccc2)n2c(=O)cc(C)c3c(O)c(O)cc1c32 | 2.8 µM | 11.9 µM | 6.06 µM | 37.5 µM | 11.7 µM | 53.7 µM | 2.46 µM | 11.4 µM | 6.64 µM | 27.7 µM | 4.23 µM | 22.1 µM | 1.59 µM | 13.9 µM | 3.98 µM | 17.9 µM | 2.47 µM | > 100 µM | 11.4 µM | 35.7 µM |
| CO/N=C(/C)COc1ccc2c(c1)oc(=O)c1cc(OC)ccc12 | > 100 µM | > 100 µM | > 100 µM | > 100 µM | > 100 µM | > 100 µM | 47.1 µM | > 100 µM | 34.1 µM | > 100 µM | > 100 µM | > 100 µM | > 100 µM | > 100 µM | > 100 µM | > 100 µM | > 100 µM | > 100 µM | > 100 µM | > 100 µM |
| CC(C)n1cc(-c2ccc3c(c2)N(C)CC3)c2c(NS(=O)(=O)c3ccn(C)n3)ccnc21 | 48 µM | > 100 µM | 74.6 µM | > 100 µM | 43.7 µM | > 100 µM | 52.5 µM | > 100 µM | 76.1 µM | > 100 µM | 72.7 µM | > 100 µM | > 100 µM | > 100 µM | 54.2 µM | > 100 µM | 49.5 µM | > 100 µM | > 100 µM | > 100 µM |
| Cc1c(O)cccc1C(=O)N[C@@H](CSc1ccccc1)[C@H](O)CN1C[C@H]2CCCC[C@H]2C[C@H]1C(=O)NC(C)(C)C | 4.27 µM and 5.97 µM | 16 µM and 17.9 µM | 6.68 µM and 7 µM | 30.6 µM and 26.3 µM | 3.8 µM and 5.87 µM | 16.4 µM and 16 µM | 5.97 µM and 5.96 µM | > 37.6 µM and 23.4 µM | 3.24 µM and 5.92 µM | 11.5 µM and 13.7 µM | 6.56 µM and 7.87 µM | 35.2 µM and 39.6 µM | 2.76 µM and 8.59 µM | 6.83 µM and > 27 µM | 2.23 µM and 2.01 µM | 4.69 µM and 7.21 µM | 4.87 µM and 6.17 µM | 32.1 µM and 27.1 µM | 3.17 µM and 6.96 µM | 16.1 µM and > 43.8 µM |
| COc1cccc2nc(Nc3cccc(NC(=O)c4ccc(N5CCN(C)CC5)c(C(F)(F)F)c4)c3)ccc12 | 0.869 µM | 1.89 µM | 2.93 µM | 10.6 µM | 0.923 µM | 1.78 µM | 1.43 µM | 6.67 µM | 1.55 µM | 5.88 µM | 1.69 µM | 5.93 µM | 1.4 µM | 50 µM | 1.65 µM | 6.44 µM | 1.5 µM | 4.95 µM | 1.11 µM | 2.29 µM |
| CC(=O)OC1C(O)C(C)OC(OC2C(OC(=O)C3CCC4C(C3)OC3(CC(OC(=O)/C=C/c5ccccc5)C(C)CO3)C43CO3)OC(C)C(O)C2OC(C)=O)C1O (stereo not given) | – | 0.0785 µM | – | 0.0615 µM | – | 0.132 µM | – | 0.051 µM | – | 0.101 µM | – | 0.198 µM | – | 0.084 µM | – | 0.0945 µM | – | > 2.5 µM | – | 0.0316 µM |
